Reference: patent publication US20220168427A1 (Ranok Therapeutics (Hangzhou) Co. Ltd., priority 2019, published 2022)

How the values were obtained:
HSP90α = HSP90α (Homo sapiens, UniProt P07900); experiment: HSP90α Binding Fluorescent Polarization (FP) Assay; conditions: competition with FITC-geldanamycin; read-out: HSP90 Binding Potency
Method in brief: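 Duplicate wells held BSA buffer, FITC-geldanamycin tracer, compound (3-fold dilution plate spanning 40 μM–2.0 nM) and recombinant protein diluted to 28 μg/ml before addition. Polarization read at 30, 60 and 120 min, 25 °C. Background-corrected mP values gave IC50 through a four-parameter inhibitor-response fit.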

BRD4 (BD1+BD2) = target: T1, BRD4 (BD1+BD2) (Homo sapiens, UniProt O60885); conditions: read-out: BRD4 Binding Potency
T1 construct: 1.8 μg/ml recombinant BRD4 (BD1+BD2 domains) protein

MV4-11 cells = experiment: MV4-11 Cell Cytotoxicity Assay; format: cell-based, human; conditions: human, MV4-11 cells, CCK-8
Description: % Inhibition=100−(D−B)/(S−B)*100%.
S: The absorbance of the maximum (cells with DMSO)
B: The absorbance of the minimum (medium with DMSO)

Compound	IC50 (HSP90α)	IC50 (BRD4 (BD1+BD2))	IC50 at 72 h (MV4-11 cells)
Cc1sc2c(c1C)C(c1ccc(Cl)cc1)=N[C@@H](CC(=O)N1CCC(CN3CCC(Cc4ccc(-n5c(C(=O)NCC(F)(F)F)nnc5-c5cc(C(C)C)c(O)cc5O)cc4)CC3)CC1)c1nnc(C)n1-2 [Compound 85, (S)-4-(4-((1-((1-(2-(4-(4-chlorophenyl)-2,3,9-trimethyl-6H-thieno[3,2-f][1,2,4]triazolo[4,3-a][1,4]diazepin-6-yl)acetyl)piperidin-4-yl)methyl)piperidin-4-yl)methyl)phenyl)-5-(2,4-dihydroxy-5-isopropylphenyl)-N-(2,2,2-trifluoroethyl)-4H-1,2,4-triazole-3-carboxamide, formic acid]	100 to 1000 nM	100 to 1000 nM	< 100 nM
CCCc1cc(C(=O)N2Cc3ccc(CN4CCN(C(=O)C[C@@H]5N=C(c6ccc(Cl)cc6)c6c(sc(C)c6C)-n6c(C)nnc65)CC4)cc3C2)c(O)cc1O [Compound 145, (S)-2-(4-(4-chlorophenyl)-2,3,9-trimethyl-6H-thieno[3,2-f][1,2,4]triazolo[4,3-a][1,4]diazepin-6-yl)-1-(4-((2-(2,4-dihydroxy-5-propylbenzoyl)isoindolin-5-yl)methyl)piperazin-1-yl)ethan-1-one]	100 to 1000 nM	> 1000 nM	> 1000 nM
CC[C@@H](C)Nc1cc(C(=O)NC2C[C@H]3CC[C@H](C2)N3c2ccc(C(=O)c3ccc(CN4CCN(CC5CCN(C(=O)C[C@@H]6N=C(c7ccc(Cl)cc7)c7c(sc(C)c7C)-n7c(C)nnc76)CC5)CC4)cc3)cn2)c(C)cc1C(N)=O (stereo partly drawn) [Compound 25, 5-(((R)-sec-butyl)amino)-N1-((1R,3r,5S)-8-(5-(4-((4-((1-(2-((S)-4-(4-chlorophenyl)-2,3,9-trimethyl-6H-thieno[3,2-f][1,2,4]triazolo[4,3-a][1,4]diazepin-6-yl)acetyl)piperidin-4-yl)methyl)piperazin-1-yl)methyl)benzoyl)pyridin-2-yl)-8-azabicyclo[3.2.1]octan-3-yl)-2-methylterephthalamide]	> 1000 nM	100 to 1000 nM	100 to 1000 nM
Cc1sc2c(c1C)C(c1ccc(Cl)cc1)=N[C@@H](CC(=O)NCC1CCN(C(=O)C3CCN(Cc4ccc(-n5c(O)nnc5-c5cc(C(C)C)c(O)cc5O)cc4)CC3)CC1)c1nnc(C)n1-2 [Compound 53, (S)-2-(4-(4-chlorophenyl)-2,3,9-trimethyl-6H-thieno[3,2-f][1,2,4]triazolo[4,3-a][1,4]diazepin-6-yl)-N-((1-(1-(4-(3-(2,4-dihydroxy-5-isopropylphenyl)-5-hydroxy-4H-1,2,4-triazol-4-yl)benzyl)piperidine-4-carbonyl)piperidin-4-yl)methyl)acetamide, trifluoroacetic acid]	100 to 1000 nM	100 to 1000 nM	< 100 nM
Cc1sc2c(c1C)C(c1ccc(Cl)cc1)=N[C@@H](CC(=O)N(C)CCOc1ccc(CN(C)Cc3ccc(-n4c(O)nnc4-c4cc(C(C)C)c(O)cc4O)cc3)cc1)c1nnc(C)n1-2 [Compound 99, (S)-2-(4-(4-chlorophenyl)-2,3,9-trimethyl-6H-thieno[3,2-f][1,2,4]triazolo[4,3-a][1,4]diazepin-6-yl)-N-(2-(4-(((4-(3-(2,4-dihydroxy-5-isopropylphenyl)-5-hydroxy-4H-1,2,4-triazol-4-yl)benzyl)(methyl)amino)methyl)phenoxy)ethyl)-N-methylacetamide, formic acid]	100 to 1000 nM	> 1000 nM	< 100 nM
Cc1sc2c(c1C)C(c1ccc(Cl)cc1)=N[C@@H](CC(=O)N1CCC(CN3CCN(c4ccc(-n5c(O)nnc5-c5cc(C(C)C)c(O)cc5O)cc4)CC3)CC1)c1nnc(C)n1-2 [Compound 41, (S)-2-(4-(4-chlorophenyl)-2,3,9-trimethyl-6H-thieno[3,2-f][1,2,4]triazolo[4,3-a][1,4]diazepin-6-yl)-1-(4-((4-(4-(3-(2,4-dihydroxy-5-isopropylphenyl)-5-hydroxy-4H-1,2,4-triazol-4-yl)phenyl)piperazin-1-yl)methyl)piperidin-1-yl)ethanone]	100 to 1000 nM	100 to 1000 nM	< 100 nM
